Assay results reported in patent US5633248A, “Amine compounds, their production and use” (priority 1994, dated 1997).
Counter-ions that a name gives are not always drawn.

Tests used:
[1] = molecular target: T1, Rat GnRH Receptor (Rattus norvegicus, UniProt P30969); assay: ^125 I-leuprolerin binding inhibition, rat anterior pituitary membrane fraction; parameters: species or system rat (Wistar); conditions: 4° C. for 90 minutes, read-out: GnRH-receptor binding inhibitory activity (IC50, μM) Rat
T1 construct: from tissue; host or cells: anterior pituitary of male Wistar rats (8 weeks old), membrane fraction
T1 sequence (P30969 1-327): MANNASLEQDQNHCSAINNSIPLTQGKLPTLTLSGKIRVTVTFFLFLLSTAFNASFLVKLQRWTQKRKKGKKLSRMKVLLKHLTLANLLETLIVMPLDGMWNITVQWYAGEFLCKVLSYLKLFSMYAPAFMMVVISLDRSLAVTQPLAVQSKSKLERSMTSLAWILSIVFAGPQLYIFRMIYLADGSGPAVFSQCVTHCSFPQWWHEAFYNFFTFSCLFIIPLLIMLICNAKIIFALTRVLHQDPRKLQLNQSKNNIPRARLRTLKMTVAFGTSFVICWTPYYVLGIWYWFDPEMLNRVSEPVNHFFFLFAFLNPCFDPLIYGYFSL
Description: A tube was filled with 10 μl of an aqueous solution of leuprolerin (3×10^4 M) and lactoperoxidase (0.01 mg/ml) followed by addition of 10 μl of Na^125 I solution (37 MBq). After stirring, 10 μl of 0.001% H2 O2 was added and the reaction was conducted at room temperature for 20 minutes. The reaction was stopped by adding 700 μl of 0.05% TFA and the reaction mixture was subjected to reversed-phase HPLC under the conditions set forth below. ^125 I-leuprolerin was eluted with a retention time of 26-27 minutes. Forty rats (8 weeks old, male) of Wistar strain were decapitated under no anesthesia and the anterior pituitary isolated from each animal was washed with an ice-cooled homogenate buffer (25 mM Tris (tris(hydroxylmethyl)aminomethane)-HCl, 0.3M sucrose, 1 mM EGTA (ethylene-bis(oxyethylenenitrilo)tetraacetic acid), 0.25 mM PMSF (phenylmethylsulfonyl fluoride), 10 U/ml aprotinin, 1 μg/ml pepstatin, 20 μg/ml leupeptin, 100 μg/ml phosphoramidon, 0.03% sodium azide; pH 7.5). The anterior pituitary was suspended in 2 ml of the same homogenate buffer as above and homogenized using a Polytron homogenizer. The homogenate thus prepared was centrifuged at 700 xg for 15 minutes and the supernatant was transferred to an ultracentrifuge cuvette and further centrifuged at 100,000 xg for 1 hour to provide a membrane fraction pellet. This pellet was suspended in 2 ml of an assay buffer (25 mM Tris-HCl, 1 mM ethylenediaminetetraacetic acid (EDTA), 0.1% bovine serum albumin (BSA), 0.25 mM PMSF, 1 μg/ml pepstatin, 20 μg/ml leupeptin, 100 μg/ml phosphoramidon, 0.03% sodium azide; pH 7.5) and centrifuged at 100,000 xg for 1 hour. The membrane fraction recovered as a pellet was resuspended in 10 ml of the same assay buffer as above, distributed into vials, preserved at -80° C., and reconstituted before use. The rat and human membrane fractions prepared under (B) and (D) were respectively diluted with the assay buffer to make 200 μg/ml each and 188 μl aliquots of each dilution were distributed into tubes. The bovine membrane fraction prepared under (C) was diluted with the assay buffer to make 750 μg/ml and 188 μl aliquots of the dilution were distributed into tubes. When the rat anterior pituitary membrane fraction was used, 2 μl of 0.1 mM compound/60% dimethyl sulfoxide (DMSO) and 10 μl of 38 nM ^125 I-leuprolerin were concurrently added. […] For determination of maximum binding, a reaction mixture was prepared by adding 2 μl of 60% DMSO and 10 μl of 38 nM ^125 I-leuprolerin. For determination of non-specific binding, a reaction mixture was prepared using 2 μl of 100 μM leuprolerin/60% DMSO and 10 μl of […] ^125 I-leuprolerin. When the rat and bovine anterior pituitary membrane fractions were used, each reaction was carried out at 4° C. for 90 minutes. On the other hand, when the human GnRH receptor-expressed CHO cell membrane fraction was used, the reaction was conducted at 25° C. for 60 minutes. After completion of the reaction, the reaction mixture was suction-filtered through a polyethyleneimine-treated Whatman glass filter (GF-F) [trademark;whatman]. After filtration, the radioactivity of the residual ^125 I-leuprolerin on the filter was measured using a γ-counter. The computation formula of (TB-SB)/(TB-NSB)×100 (SB=radioactivity bound in the presence of the test compound, TB=maximum amount of radioactivity bound, NSB=amount of radioactivity nonspecifically bound) was calculated to find the binding inhibition rate for the test compound. Moreover, the inhibition rate was determined by varying the concentration of each test compound and the concentration of the compound causing 50% inhibition of binding (IC50 value) was calculated by Hill plot.

[2] = molecular target: T2, Human GnRH receptor (Homo sapiens, UniProt P30968); assay: ^125 I-leuprolerin binding inhibition, human GnRH receptor-expressed CHO cell membrane fraction; conditions: 25° C. for 60 minutes, read-out: GnRH-receptor binding inhibitory activity (IC50, μM) Man
T2 construct: expressed in transfected cells; host or cells: CHO (Chinese hamster ovary) cells, membrane fraction
T2 sequence (P30968 1-328): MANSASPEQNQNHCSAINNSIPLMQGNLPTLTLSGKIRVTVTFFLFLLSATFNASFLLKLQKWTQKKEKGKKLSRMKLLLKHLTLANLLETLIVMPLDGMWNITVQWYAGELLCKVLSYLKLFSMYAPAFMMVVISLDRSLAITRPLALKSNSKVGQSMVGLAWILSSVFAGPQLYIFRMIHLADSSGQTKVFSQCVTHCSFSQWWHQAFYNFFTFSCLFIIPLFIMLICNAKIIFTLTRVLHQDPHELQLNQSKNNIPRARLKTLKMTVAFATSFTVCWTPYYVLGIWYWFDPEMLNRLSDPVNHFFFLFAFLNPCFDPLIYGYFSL
Description: A tube was filled with 10 μl of an aqueous solution of leuprolerin (3×10^4 M) and lactoperoxidase (0.01 mg/ml) followed by addition of 10 μl of Na^125 I solution (37 MBq). After stirring, 10 μl of 0.001% H2 O2 was added and the reaction was conducted at room temperature for 20 minutes. The reaction was stopped by adding 700 μl of 0.05% TFA and the reaction mixture was subjected to reversed-phase HPLC under the conditions set forth below. ^125 I-leuprolerin was eluted with a retention time of 26-27 minutes. […] To the sediment was added 10 ml of a cell homogenate buffer (10 mM NaHCO3, 5 mM EDTA, pH 7.5) and the mixture was homogenized using a Polytron homogenizer. The homogenate was centrifuged at 400 xg for 15 minutes and the supernatant was transferred to an ultracentrifuge cuvette and centrifuged at 100,000 xg for 1 hour to prepare a membrane fraction pellet. This pellet was suspended in 2 ml of the assay buffer and further centrifuged at 100,000 xg for 1 hour. The membrane fraction recovered as a pellet was resuspended in 20 ml of the assay buffer, distributed into vials, preserved at -80° C., and reconstituted before use. The rat and human membrane fractions prepared under (B) and (D) were respectively diluted with the assay buffer to make 200 μg/ml each and 188 μl aliquots of each dilution were distributed into tubes. The bovine membrane fraction prepared under (C) was diluted with the assay buffer to make 750 μg/ml and 188 μl aliquots of the dilution were distributed into tubes. When the rat anterior pituitary membrane fraction was used, 2 μl of 0.1 mM compound/60% dimethyl sulfoxide (DMSO) and 10 μl of 38 nM ^125 I-leuprolerin were concurrently added. […] For determination of maximum binding, a reaction mixture was prepared by adding 2 μl of 60% DMSO and 10 μl of 38 nM ^125 I-leuprolerin. For determination of non-specific binding, a reaction mixture was prepared using 2 μl of 100 μM leuprolerin/60% DMSO and 10 μl of […] ^125 I-leuprolerin. When the rat and bovine anterior pituitary membrane fractions were used, each reaction was carried out at 4° C. for 90 minutes. On the other hand, when the human GnRH receptor-expressed CHO cell membrane fraction was used, the reaction was conducted at 25° C. for 60 minutes. After completion of the reaction, the reaction mixture was suction-filtered through a polyethyleneimine-treated Whatman glass filter (GF-F) [trademark;whatman]. After filtration, the radioactivity of the residual ^125 I-leuprolerin on the filter was measured using a γ-counter. The computation formula of (TB-SB)/(TB-NSB)×100 (SB=radioactivity bound in the presence of the test compound, TB=maximum amount of radioactivity bound, NSB=amount of radioactivity nonspecifically bound) was calculated to find the binding inhibition rate for the test compound. Moreover, the inhibition rate was determined by varying the concentration of each test compound and the concentration of the compound causing 50% inhibition of binding (IC50 value) was calculated by Hill plot.

Row | Structure (SMILES) | IC50 [1] [µM] | IC50 [2] [µM]
1 | COc1ccc2c(c1)CCC1(CCCCN1CCCC(CCNC(C)=O)(c1ccccc1)c1ccccc1)C2 (centres unmarked) [II-37, 3,4-Dihydro-6-methoxy-1'-(6-acetylamino-4,4-diphenylhexyl)spiro[naphthalene-2(1H),2'-piperidine] dihydrochloride] | 0.3 | 
2 | COc1cc2c(cc1OC)CC(N(CCCC(CCCNC(C)=O)(c1ccccc1)c1ccccc1)Cc1ccccc1)CC2 (centres unmarked) [II-43, 7-Acetylamino-1-{N-benzyl-N-[2-(6,7-dimethoxy-1,2,3,4-tetrahydronaphthyl)]amino}-4,4-diphenylheptane dihydrochloride] | 0.2 | 
3 | COc1cccc2c1CC1(CCCCN1CCCC(CCCNC(C)=O)(c1ccccc1)c1ccccc1)CC2 (centres unmarked) [II-44, 1'-(7-Acetylamino-4,4-diphenylheptyl)-3,4-dihydro-8-methoxyspiro[naphthalene-2(1H),2'-piperidine] dihydrochloride] | 0.4 | 
4 | COc1ccc2c(c1)CCC1(CCCCN1CCCC(CCCNC(C)=O)(c1ccccc1)c1ccccc1)C2 (centres unmarked) [II-45, 1'-(7-Acetylamino-4,4-diphenylheptyl)-3,4-dihydro-6-methoxyspiro[naphthalene-2(1H),2'-piperidine] dihydrochloride] | 0.08 | 
5 | COc1cc2c(cc1OC)CC1(CCCCN1CCCC(CCCNC(C)=O)(c1ccccc1)c1ccccc1)CC2 (centres unmarked) [II-46, 1'-(7-Acetylamino-4,4-diphenylheptyl)-3,4-dihydro-6,7-dimethoxyspiro[naphthalene-2(1H),2'-piperidine] dihydrochloride] | 0.003 | 
6 | COc1cc2c(cc1OC)CC1(CCCCN1CCCC(CCCNC(=O)Cc1ccccc1)(c1ccccc1)c1ccccc1)CC2 (centres unmarked) [II-48, 3,4-Dihydro-6,7-dimethoxy-1'-[4,4-diphenyl-7-(phenylacetylamino)heptyl]spiro[naphthalene-2(1H),2'-piperidine] hydrochloride] | 0.002 | 0.2
7 | COc1cc2c(cc1OC)CC1(CCCCN1CCCC(CCCNC(=O)Cc1ccc(F)cc1)(c1ccccc1)c1ccccc1)CC2 (centres unmarked) [II-50, 3,4-Dihydro-6,7-dimethoxy-1'-{4,4-diphenyl-7-[(4-fluorophenylacetyl)amino]heptyl}spiro[naphthalene-2(1H),2'-piperidine] hydrochloride] | 0.0007 | 0.08
8 | COc1cc2c(cc1OC)CC1(CCCCN1CCCC(CCCNC(=O)Cc1ccc(Cl)cc1)(c1ccccc1)c1ccccc1)CC2 (centres unmarked) [II-51, 3,4-Dihydro-6,7-dimethoxy-1'-{4,4-diphenyl-7-[(4-chlorophenylacetyl)amino]heptyl}spiro[naphthalene-2(1H),2'-piperidine] hydrochloride] | 0.002 | 0.08
9 | COc1cc2c(cc1OC)CC1(CCCCN1CCCC(CCCNC(=O)Cc1ccc([N+](=O)[O-])cc1)(c1ccccc1)c1ccccc1)CC2 (centres unmarked) [II-53, 3,4-Dihydro-6,7-dimethoxy-1'-{4,4-diphenyl-7-[(4-nitrophenylacetyl)amino]heptyl}spiro[naphthalene-2(1H),2'-piperidine] hydrochloride] | 0.01 | 0.8
10 | COc1ccc(CC(=O)NCCCC(CCCN2CCCCC23CCc2cc(OC)c(OC)cc2C3)(c2ccccc2)c2ccccc2)cc1 (centres unmarked) [II-58, 3,4-Dihydro-6,7-dimethoxy-1'-{4,4-diphenyl-7-[(4-methoxyphenylacetyl)amino]heptyl}spiro[naphthalene-2(1H),2'-piperidine] hydrochloride] | 0.0016 | 0.11
11 | COc1ccc(CC(=O)NCCCC(CCCN2CCCCC23CCc2cc(OC)c(OC)cc2C3)(c2ccccc2)c2ccccc2)cc1OC (centres unmarked) [II-59, 3,4-Dihydro-6,7-dimethoxy-1'-{7-[(3,4-dimethoxyphenylacetyl)amino]-4,4-diphenylheptyl}spiro[naphthalene-2(1H),2'-piperidine] hydrochloride] | 0.02 | 0.4
12 | COc1cc2c(cc1OC)CC1(CCCCN1CCCC(CCCNC(=O)Cc1ccc3c(c1)OCO3)(c1ccccc1)c1ccccc1)CC2 (centres unmarked) [II-60, 3,4-Dihydro-6,7-dimethoxy-1'-{4,4-diphenyl-7-[(3,4-methylenedioxyphenylacetyl)amino]heptyl}spiro[naphthalene-2(1H),2'-piperidine] hydrochloride] | 0.002 | 0.1
13 | COc1cc2c(cc1OC)CC1(CCCCN1CCCC(CCCNC(=O)COc1ccccc1)(c1ccccc1)c1ccccc1)CC2 (centres unmarked) [II-61, 3,4-Dihydro-6,7-dimethoxy-1'-{4,4-diphenyl-7-[(phenoxyacetyl)amino]heptyl}spiro[naphthalene-2(1H),2'-piperidine] hydrochloride] | 0.01 | 
